Like-named read-outs stand apart in the source and are kept apart here.
Tests used:
[1] = format: physicochemical; conditions: for Viscosity, Initial: Epoxy Composition 3 (Table 8) with the named Lewis Acid Additive, before storage; for 7d (increase in viscosity in %) / Viscosity, 7d / 15 d (increase in viscosity in %) / Viscosity, 15 d: Epoxy Composition 3 with the named Lewis Acid Additive; for 7d (increase in viscosity in %) / Viscosity, 7d: stored at 50°C for 7 days; for 15 d (increase in viscosity in %) / Viscosity, 15 d: stored at 50°C for 15 days
Method: The A1 value gave the viscosity in Pascal seconds.
The epoxy resin was put in a Speedmixer cup (Hauschild Engineering), the thixotrope and dicyandiamide were added, and the raw materials mixed at 3500 s^-1 for 5 min. The accelerator and the additive were then weighed into the resin formulation and the mixture again speedmixed at 3500 s^-1 for 15 s. Formulations were stored at 50 °C. The complex viscosity was determined after 7 d and 15 d. Table 9. Viscosity of adhesive formulations stored at 50°C for 7 and 15 days in Pa*s.

[2] = cited from earlier work

| Structure (SMILES) | Viscosity, Initial [1] [Pa*s] | 7d (increase in viscosity in %) [1] [%] | Viscosity, 7d [1] [Pa*s] | 15 d (increase in viscosity in %) [1] [%] | Viscosity, 15 d [1] [Pa*s] | solubility in water ([2]; at 25°C) [g/100g] | solubility in water ([2]; at 25°C, printed in brackets beside the g/100g value) [g/L] | solubility in water ([2]; at 17.8°C) |
| --- | --- | --- | --- | --- | --- | --- | --- | --- |
| [Cl-].[Cl-].[Zn+2] [ZnCl2, Zinc chloride] | 54 | 140 | 76 | 292 | 158 | 432 | 4320 |  |
| [O]=[Zn] [ZnO, Zinc oxide] | 48 | 233 | 112 | 17235 | 8273 |  |  | solubility in water 0.0004% at 17.8 °C |
| CCCCCCCCCCCCCCCCCC(=O)[O-].[Al+3].[OH-].[OH-] [AMS, Aluminum monostearate] | 53 | 245 | 130 | 337 | 179 |  |  |  |
